Assays:
[1] = system: Puccinia recondita f. Sp. Tritici; test: Fungicidal activity against Puccinia recondita f. sp. tritici / wheat / leaf disc preventative (brown rust); format: in vivo; conditions: foliar, 200 ppm in the applied formulation, wheat leaf segments, preventative, compared to untreated control leaf disks, read-out: disease control
Summary of the method: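 Compound application precedes infection: segments of wheat cv. Kanzler, sprayed at 200 ppm, are inoculated with a spore suspension after 1 day. Incubation is at 19° C. with 75% relative humidity and 12 h light/12 h darkness, and control versus untreated leaves is rated 7 to 9 days post-application.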

[2] = system: Puccinia recondita f. Sp. Tritici; test: Fungicidal activity against Puccinia recondita f. sp. tritici / wheat / leaf disc curative (brown rust); format: in vivo; conditions: foliar, 24 h, 200 ppm in the applied formulation, wheat leaf segments, curative (applied 1 day after inoculation), compared to untreated control leaf disks, read-out: disease control
Summary of the method: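 Scoring is percent disease control relative to untreated segments, made 6 to 8 days after treatment. Wheat (cv. Kanzler) leaf segments received the formulated, water-diluted compound one day post-inoculation with spores, having been kept dark at 19° C and 75% RH, then incubated under 12 h light/12 h dark at the same temperature and humidity.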

Phakopsora Pachyrhizi = test: Fungicidal activity against Phakopsora pachyrhizi / soybean / leaf disc preventative (Asian soybean rust); format: in vivo; conditions: foliar, 200 ppm in the applied formulation, soybean leaf disks, compared to untreated control leaf disks, read-out: disease control
Summary of the method: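 Preventative soybean leaf-disc test: discs on water agar sprayed with diluted formulated compound, inoculated one day later with spores on the lower surface. Held 24–36 h dark at 20°C, 75% rh, then 12 h light/day; percent disease control versus untreated discs scored 12–14 days after application.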

[3] = system: Glomerella lagenarium (Colletotrichum lagenarium); test: Fungicidal activity against Glomerella lagenarium (Colletotrichum lagenarium) liquid culture / cucumber / preventative (anthracnose); format: cell-based; conditions: Colletotrichum orbiculare; 20 ppm in the applied formulation; liquid culture (PDB), growth inhibition measured photometrically after 3 to 4 days; compared to untreated control; read-out: disease control
Summary of the method: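 Photometric read-out of fungal growth after 2–7 days, expressed as percent antifungal activity versus untreated check. Cryo-stored conidia in PDB; compound at 20 ppm; dark, 24 °C, 96% RH.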

CN(Cc1ccc(-c2noc(C(F)(F)F)n2)cc1)C(=O)C1CC1F (stereo not shown) [Compound 1.529, 2-fluoro-N-methyl-N-[[4-[5-(trifluoromethyl)-1,2,4-oxadiazol-3-yl]phenyl]methyl]-cyclopropane-carboxamide]
≥ 80%: pest or weed control at 200 ppm [1] | pest or weed control at 200 ppm [2] | pest or weed control at 200 ppm (Phakopsora Pachyrhizi) | inhibition of growth at 20 ppm [3]

CN(Cc1ccc(-c2noc(C(F)(F)F)n2)cc1)C(=O)C1OCCO1 [Compound 1.531, N-methyl-N-[[4-[5-(trifluoromethyl)-1,2,4-oxadiazol-3-yl]phenyl]methyl]-1,3-dioxolane-2-carboxamide]
≥ 80%: pest or weed control at 200 ppm [1] | pest or weed control at 200 ppm [2] | pest or weed control at 200 ppm (Phakopsora Pachyrhizi) | inhibition of growth at 20 ppm [3]

CN(Cc1ccc(-c2noc(C(F)(F)F)n2)cc1)C(=O)C1CC1 [Compound 1.532, N-methyl-N-[[4-[5-(trifluoromethyl)-1,2,4-oxadiazol-3-yl]phenyl]methyl]-cyclopropane-carboxamide]
≥ 80%: pest or weed control at 200 ppm [1] | pest or weed control at 200 ppm [2] | pest or weed control at 200 ppm (Phakopsora Pachyrhizi) | inhibition of growth at 20 ppm [3]

CON(Cc1ccc(-c2noc(C(F)(F)F)n2)cc1F)C(=O)C1CCCO1 (stereo not shown) [Compound 1.563, N-[[2-fluoro-4-[5-(trifluoromethyl)-1,2,4-oxadiazol-3-yl]phenyl]methyl]-N-methoxy-tetrahydrofuran-2-carboxamide]
≥ 80%: pest or weed control at 200 ppm [1] | pest or weed control at 200 ppm [2] | pest or weed control at 200 ppm (Phakopsora Pachyrhizi) | inhibition of growth at 20 ppm [3]

CCON(Cc1ccc(-c2noc(C(F)(F)F)n2)cc1)C(=O)C1CC1 [Compound 1.564, N-ethoxy-N-[[4-[5-(trifluoromethyl)-1,2,4-oxadiazol-3-yl]phenyl]methyl]-cyclopropane-carboxamide]
≥ 80%: pest or weed control at 200 ppm [1] | pest or weed control at 200 ppm [2] | pest or weed control at 200 ppm (Phakopsora Pachyrhizi) | inhibition of growth at 20 ppm [3]

CON(Cc1ccc(-c2noc(C(F)(F)F)n2)cc1F)C(=O)C1CC1 [Compound 1.566, N-[[2-fluoro-4-[5-(trifluoromethyl)-1,2,4-oxadiazol-3-yl]phenyl]methyl]-N-methoxy-cyclopropane-carboxamide]
≥ 80%: pest or weed control at 200 ppm [1] | pest or weed control at 200 ppm [2] | pest or weed control at 200 ppm (Phakopsora Pachyrhizi) | inhibition of growth at 20 ppm [3]

CCON(Cc1ccc(-c2noc(C(F)(F)F)n2)cc1)C(=O)COC [Compound 1.567, N-ethoxy-2-methoxy-N-[[4-[5-(trifluoromethyl)-1,2,4-oxadiazol-3-yl]phenyl]methyl]-acetamide]
≥ 80%: pest or weed control at 200 ppm [1] | pest or weed control at 200 ppm [2] | pest or weed control at 200 ppm (Phakopsora Pachyrhizi) | inhibition of growth at 20 ppm [3]

CON(Cc1ccc(-c2noc(C(F)(F)F)n2)cn1)C(=O)C1CCCO1 (stereo not shown) [Compound 1.569, N-methoxy-N-[[5-[5-(trifiuoromethyl)-1,2,4-oxadiazol-3-yl]-2-pyridyl]methyl]-tetrahydrofuran-2-carboxamide]
≥ 80%: pest or weed control at 200 ppm [1] | pest or weed control at 200 ppm [2] | pest or weed control at 200 ppm (Phakopsora Pachyrhizi) | inhibition of growth at 20 ppm [3]

CON(Cc1ccc(-c2noc(C(F)(F)F)n2)cn1)C(=O)C1CC1 [Compound 1.570, N-methoxy-N-[[5-[5-(trifluoromethyl)-1,2,4-oxadiazol-3-yl]-2-pyridyl]methyl]cyclopropanecarboxamide]
≥ 80%: pest or weed control at 200 ppm [1] | pest or weed control at 200 ppm [2] | pest or weed control at 200 ppm (Phakopsora Pachyrhizi) | inhibition of growth at 20 ppm [3]

CCCN(Cc1ccc(-c2noc(C(F)(F)F)n2)cc1)C(=O)CC [Compound 1.573, N-propyl-N-[[4-[5-(trifluoromethyl)-1,2,4-oxadiazol-3-yl]phenyl]methyl]-propanamide]
≥ 80%: pest or weed control at 200 ppm [1] | pest or weed control at 200 ppm [2] | pest or weed control at 200 ppm (Phakopsora Pachyrhizi) | inhibition of growth at 20 ppm [3]

CCCN(Cc1ccc(-c2noc(C(F)(F)F)n2)cc1)C(=O)C1CC1 [Compound 1.574, N-propyl-N-[[4-[5-(trifluoromethyl)-1,2,4-oxadiazol-3-yl]phenyl]methyl]-cyclopropane-carboxamide]
≥ 80%: pest or weed control at 200 ppm [1] | pest or weed control at 200 ppm [2] | pest or weed control at 200 ppm (Phakopsora Pachyrhizi) | inhibition of growth at 20 ppm [3]

CCCN(Cc1ccc(-c2noc(C(F)(F)F)n2)cc1)C(=O)COC [Compound 1.575, 2-methoxy-N-propyl-N-[[4-[5-(trifluoromethyl)-1,2,4-oxadiazol-3-yl]phenyl]methyl]-acetamide]
≥ 80%: pest or weed control at 200 ppm [1] | pest or weed control at 200 ppm [2] | pest or weed control at 200 ppm (Phakopsora Pachyrhizi) | inhibition of growth at 20 ppm [3]

CON(Cc1ccc(-c2noc(C(F)(F)F)n2)c(F)c1F)C(=O)C1CCCO1 (stereo not shown) [Compound 1.577, N-[[2,3-difluoro-4-[5-(trifluoromethyl)-1,2,4-oxadiazol-3-yl]phenyl]methyl]-N-methoxy-tetrahydrofuran-2-carboxamide]
≥ 80%: pest or weed control at 200 ppm [1] | pest or weed control at 200 ppm [2] | pest or weed control at 200 ppm (Phakopsora Pachyrhizi) | inhibition of growth at 20 ppm [3]

CON(Cc1ccc(-c2noc(C(F)(F)F)n2)c(F)c1)C(=O)C1CCCO1 (stereo not shown) [Compound 1.578, N-[[3-fluoro-4-[5-(trifluoromethyl)-1,2,4-oxadiazol-3-yl]phenyl]methyl]-N-methoxy-tetrahydrofuran-2-carboxamide]
≥ 80%: pest or weed control at 200 ppm [1] | pest or weed control at 200 ppm [2] | pest or weed control at 200 ppm (Phakopsora Pachyrhizi) | inhibition of growth at 20 ppm [3]

CON(Cc1ccc(-c2noc(C(F)(F)F)n2)c(F)c1)C(=O)C1CC1 [Compound 1.579, N-[[3-fluoro-4-[5-(trifluoromethyl)-1,2,4-oxadiazol-3-yl]phenyl]methyl]-N-methoxy-cyclopropane-carboxamide]
≥ 80%: pest or weed control at 200 ppm [1] | pest or weed control at 200 ppm [2] | pest or weed control at 200 ppm (Phakopsora Pachyrhizi) | inhibition of growth at 20 ppm [3]

CCC(=O)N(Cc1ccc(-c2noc(C(F)(F)F)n2)c(F)c1)OC [Compound 1.580, N-[[3-fluoro-4-[5-(trifluoromethyl)-1,2,4-oxadiazol-3-yl]phenyl]methyl]-N-methoxy-propanamide]
≥ 80%: pest or weed control at 200 ppm [1] | pest or weed control at 200 ppm [2] | pest or weed control at 200 ppm (Phakopsora Pachyrhizi) | inhibition of growth at 20 ppm [3]

CCC(=O)N(Cc1ccc(-c2noc(C(F)(F)F)n2)cc1)CC(F)(F)F [Compound 1.582, N-(2,2,2-trifluoroethyl)-N-[[4-[5-(trifluoromethyl)-1,2,4-oxadiazol-3-yl]phenyl]methyl]-propanamide]
≥ 80%: pest or weed control at 200 ppm [1] | pest or weed control at 200 ppm [2] | pest or weed control at 200 ppm (Phakopsora Pachyrhizi) | inhibition of growth at 20 ppm [3]

CON(Cc1ccc(-c2noc(C(F)(F)F)n2)c(F)c1F)C(=O)C1CC1 [Compound 1.584, N-[[2,3-difluoro-4-[5-(trifluoromethyl)-1,2,4-oxadiazol-3-yl]phenyl]methyl]-N-methoxy-cyclopropane-carboxamide]
≥ 80%: pest or weed control at 200 ppm [1] | pest or weed control at 200 ppm [2] | pest or weed control at 200 ppm (Phakopsora Pachyrhizi) | inhibition of growth at 20 ppm [3]

CCC(=O)N(Cc1ccc(-c2noc(C(F)(F)F)n2)c(F)c1F)OC [Compound 1.585, N-[[2,3-difluoro-4-[5-(trifluoromethyl)-1,2,4-oxadiazol-3-yl)phenyl]methyl)-N-methoxy-propanamide]
≥ 80%: pest or weed control at 200 ppm [1] | pest or weed control at 200 ppm [2] | pest or weed control at 200 ppm (Phakopsora Pachyrhizi) | inhibition of growth at 20 ppm [3]

Source: US11180462B2, “Microbiocidal oxadiazole derivatives” (SYNGENTA PARTICIPATIONS AG, priority 2015, dated 2021)
